From ChEMBL document CHEMBL5247638, “From rational design to serendipity: Discovery of novel thiosemicarbazones as potent trypanocidal compounds” (Eur J Med Chem, 2022) come the findings set out here.

As a reminder, the inhibition is the relative decrease from the control value, in per cent. Broadly, the EC50 is the concentration needed to bring the measured effect to its halfway point. A higher EC50 goes with a less potent agent. By IC50 is commonly meant the concentration needed to halve the response being measured.

In series [1] the target is Cruzipain (Trypanosoma cruzi) (UniProt P25779). Description: Inhibition of Trypanosoma cruzi cruzain using Z-FR-AMC as substrate at 100 uM by fluorimetric analysis relative to control.
The target is the same in series [2]. Description: Inhibition of Trypanosoma cruzi cruzain using Z-FR-AMC as substrate at 100 uM preincubated for 10 mins followed by substrate addition by fluorimetric analysis relative to control.
Series [3] has as its system Trypanosoma brucei. Description: Antiparasitic activity against Trypanosoma brucei incubated for 72 hrs by SYBR Green 1 dye based fluorescence assay. It is filed as functional, organism-based.
The test system of series [4] is Trypanosoma cruzi. Description: Antiparasitic activity against Trypanosoma cruzi CA-I/72 incubated for 72 hrs by DAPI staining based microscopic analysis. It is filed as functional, organism-based. The conditions noted are these: CA-I/72, 72 h.
Series [5] in a line: Inhibition of TbrCatL using Z-FR-AMC as substrate preincubated for 10 mins followed by substrate addition by fluorimetric analysis. More on the design: species or system Trypanosoma brucei.
The subject of series [6] is Trypanosoma brucei. Description: Inhibition of TbrCatL using Z-FR-AMC as substrate at 100 uM by fluorimetric analysis relative to control.
Series [7] is described as follows: Inhibition of TbrCatL using Z-FR-AMC as substrate preincubated for 10 mins followed by substrate addition in presence of 0% Triton by fluorimetric analysis. More on the design: species or system Trypanosoma brucei.
Series [8] has as its system Trypanosoma brucei. Description: Inhibition of TbrCatL using Z-FR-AMC as substrate at 100 uM preincubated for 10 mins followed by substrate addition by fluorimetric analysis relative to control.
Series [9] is described as follows: Inhibition of TbrCatL using Z-FR-AMC as substrate preincubated for 10 mins followed by substrate addition in presence of 0.01% Triton by fluorimetric analysis. More on the design: species or system Trypanosoma brucei.
The next series concerns the target Cruzipain (Trypanosoma cruzi, UniProt P25779). Description: Inhibition of Trypanosoma cruzi cruzain using Z-FR-AMC as substrate preincubated for 10 mins followed by substrate addition by fluorimetric analysis.
The nature of series [10]: Selectivity index, ratio of CC50 for mouse myoblasts cells to EC50 for Trypanosoma cruzi CA-I/72. It is filed as toxicity. As to conditions: read-out: Ratio CC50/EC50.
Series [11] deals with Nonstructural protein 3 (Zika virus) (UniProt A0A024AXB9). Description: Inhibition of Zika virus NS2B-NS3 protease using Bz-Nle-Lys-Lys-Arg-AMC as substrate at 0.78 uM preincubated for 10 mins followed by substrate addition relative to control.
In series [12] the target is Cruzipain (Trypanosoma cruzi) (UniProt P25779). Description: Inhibition of Trypanosoma cruzi cruzain using Z-FR-AMC as substrate at 0.25 to 1 uM incubated for 10 mins by fluorimetric analysis. The conditions noted are these: dose 0.25-1 µM.
The nature of series [13]: Inhibition of TbrCatL using Z-FR-AMC as substrate preincubated for 10 mins in presence of BSA followed by substrate addition by fluorimetric analysis. Set-up: species or system Trypanosoma brucei.
Series [14] can be described thus: Inhibition of TbrCatL using Z-FR-AMC as substrate preincubated for 10 mins followed by substrate addition in presence of 0.1% Triton by fluorimetric analysis. More on the design: species or system Trypanosoma brucei.
The subject of series [15] is Trypanosoma cruzi. Description: Potency index, ratio of pentamidine EC50 to test compound EC50 for antiparasitic activity against Trypanosoma cruzi CA-I/72 incubated for 72 hrs by DAPI staining based microscopic analysis. It is filed as functional.
The test system of series [16] is Trypanosoma cruzi. Description: Potency index, ratio of benznidazole EC50 to test compound EC50 for antiparasitic activity against Trypanosoma cruzi CA-I/72 incubated for 72 hrs by DAPI staining based microscopic analysis. It is filed as functional.

Structures are written as SMILES. Activity calls are given as the source filed them. The calls are words filed in the database; no cut-off is given here.

Cruzipain, sequence (P25779 whole entry): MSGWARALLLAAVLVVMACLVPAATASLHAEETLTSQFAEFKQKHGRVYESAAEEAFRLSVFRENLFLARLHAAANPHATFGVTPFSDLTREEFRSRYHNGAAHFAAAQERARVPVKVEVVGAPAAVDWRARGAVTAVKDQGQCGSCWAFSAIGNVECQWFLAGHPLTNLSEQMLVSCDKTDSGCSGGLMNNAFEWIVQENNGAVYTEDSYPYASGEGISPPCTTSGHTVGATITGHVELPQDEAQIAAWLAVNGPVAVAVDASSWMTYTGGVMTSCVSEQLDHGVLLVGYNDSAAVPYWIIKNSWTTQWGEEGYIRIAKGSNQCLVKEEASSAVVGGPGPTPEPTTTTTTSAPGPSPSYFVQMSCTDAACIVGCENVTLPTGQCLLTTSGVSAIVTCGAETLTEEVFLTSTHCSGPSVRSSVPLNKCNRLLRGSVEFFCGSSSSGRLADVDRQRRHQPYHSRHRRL
Cruzipain (Trypanosoma cruzi), sequence (P25779 123-467 limits assumed): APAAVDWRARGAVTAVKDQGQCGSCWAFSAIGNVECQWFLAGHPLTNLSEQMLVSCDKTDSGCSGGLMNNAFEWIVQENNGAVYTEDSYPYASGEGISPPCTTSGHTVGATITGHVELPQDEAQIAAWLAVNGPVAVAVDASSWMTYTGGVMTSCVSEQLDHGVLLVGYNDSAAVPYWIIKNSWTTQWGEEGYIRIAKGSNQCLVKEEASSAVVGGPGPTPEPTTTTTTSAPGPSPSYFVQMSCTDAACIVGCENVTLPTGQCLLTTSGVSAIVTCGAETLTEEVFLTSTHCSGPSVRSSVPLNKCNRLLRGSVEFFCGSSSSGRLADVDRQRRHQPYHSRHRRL
Nonstructural protein 3 (Zika virus), sequence (A0A024AXB9 as listed by the source): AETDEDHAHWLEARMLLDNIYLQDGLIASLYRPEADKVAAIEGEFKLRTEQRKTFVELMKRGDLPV

As for `NC(=S)N/N=C/c1cn(-c2ccc(Br)cc2Cl)nn1`, the inhibition in series [1] stood at 16%; in series [2], 6%; in the series with Trypanosoma brucei [6] it was 25%; in the series with Trypanosoma brucei [8], 98%. In addition, the figures for the EC50 in the series with Trypanosoma brucei [3] and in the series on Trypanosoma cruzi [4] were greater than 50 µM and greater than 10 µM, respectively. Besides, the IC50 in series [5] stood at 2.5 µM; in series [7], 0.6 µM; in series [9], 2 µM.
`NC(=S)N/N=C/c1ccc(-c2ccc(Cl)cc2)o1` registered a 50% inhibitory concentration (IC50) at Cruzipain of 1 µM. Moreover, the selectivity ratio in series [10] is greater than 18.
For `OCC(CO)NCc1ccc(-c2ccc(Br)cc2Cl)o1`, the half-maximal inhibitory concentration (IC50) at Cruzipain was 149 µM; in series [5], 90 µM. The concentration giving a half-maximal response (EC50) is 39.5 µM in the series on Trypanosoma brucei [3] and greater than 10 µM with Trypanosoma cruzi [4]. In the series with Trypanosoma brucei [6], this molecule showed an inhibition of 64%.
On to `OCCNCc1cn(-c2ccc(Cl)cc2)nn1`, for which the EC50 was greater than 50 µM with Trypanosoma brucei [3] and greater than 10 µM with Trypanosoma cruzi [4].
For `N/C(S)=N/N=C/c1ccc(-c2ccc(Cl)cc2)o1`, the inhibition in [1] was 19%; in [11], 24%; in series [2] it was 94%; in the series on Trypanosoma brucei [6] it was 14%; in the series with Trypanosoma brucei [8] it was 96%. In series [12], the inhibition result is “inactive”. Further, the values for the concentration for a half-maximal effect (EC50) in the series on Trypanosoma brucei [3] and with Trypanosoma cruzi [4] were 27 µM and 0.56 µM, respectively. Besides, the IC50 in [5] was 0.04 µM; in series [7], 0.07 µM; in series [13], 15 µM; in [9], 0.04 µM.
Consider `OCCNCc1ccc(-c2ccc(Br)cc2Cl)o1`, for which the 50% inhibitory concentration (IC50) on Cruzipain stood at 51 µM; in series [5], 78 µM. Moreover, the EC50 in the series on Trypanosoma brucei [3] is 13 µM; in the series on Trypanosoma cruzi [4], greater than 10 µM. The inhibition in the series with Trypanosoma brucei [6] came to 68%; in the series on Trypanosoma brucei [8], 67%.
Turning to `OCCNCc1cn(-c2ccc(Cl)c(Cl)c2)nn1`, the EC50 in the series on Trypanosoma brucei [3] is greater than 50 µM; in the series with Trypanosoma cruzi [4], greater than 10 µM.
In the case of `NC(=S)N/N=C/c1ccc(-c2ccc(Br)cc2Cl)o1`, the inhibition in series [1] stood at 17%; in series [11], 8%; in series [2], 70%; with Trypanosoma brucei [6], 22%; with Trypanosoma brucei [8], 90%. The IC50 against Cruzipain came out at 0.45 µM; in series [14] it was 0.7 µM; in series [5] it was 0.05 µM; in series [7] it was 0.006 µM; in series [13], 14 µM; in series [9] it was 0.05 µM. Further, the inhibition result in series [12] was “inactive”. In addition, the results for the EC50 in the series on Trypanosoma brucei [3] and in the series with Trypanosoma cruzi [4] were greater than 50 µM and 0.027 µM, respectively. The selectivity ratio in series [10] was greater than 370. Further, the “Ratio EC50” value in the series on Trypanosoma cruzi [15] and with Trypanosoma cruzi [16] was 200 throughout.
Consider `CN(C)CCCNCc1ccc(-c2ccc(Cl)cc2Cl)o1`, for which the inhibition in series [1] came out at 67%; in the series on Trypanosoma brucei [6], 81%.
`OCCNCc1ccc(-c2ccc(Cl)c(Cl)c2)o1`: the inhibition is 62% in [1], 55% in series [2], 29% in the series with Trypanosoma brucei [6] and 40% in the series with Trypanosoma brucei [8]. Besides, the concentration giving a half-maximal response (EC50) with Trypanosoma brucei [3] is greater than 50 µM; in the series with Trypanosoma cruzi [4], greater than 10 µM.
Turning to `OCCNCc1cn(-c2ccc(Br)cc2Cl)nn1`, the concentration for a half-maximal effect (EC50) in the series on Trypanosoma brucei [3] was greater than 50 µM; with Trypanosoma cruzi [4], greater than 10 µM.
For the molecule `OCC(CO)NCc1ccc(-c2ccc(Cl)c(C(F)(F)F)c2)o1`, it took 133 µM to reach half-maximal inhibition against Cruzipain (IC50). Moreover, the EC50 in the series on Trypanosoma brucei [3] is greater than 50 µM; in the series with Trypanosoma cruzi [4] it was greater than 10 µM. The results for the inhibition in the series on Trypanosoma brucei [6] and in the series with Trypanosoma brucei [8] were 0% and 51%, respectively.
In the case of `O=C(Cn1ccnc1[N+](=O)[O-])NCc1ccccc1` [BENZNIDAZOLE], it took 5.4 µM to reach a half-maximal effect in the series with Trypanosoma cruzi [4] (EC50). For the same molecule, the selectivity ratio in series [10] is greater than 9.
In the case of `Clc1cc(Br)ccc1-c1ccc(CNCCN2CCOCC2)o1`, the IC50 is 92 µM on Cruzipain and 79 µM in series [5]. Further, the EC50 is 24.4 µM in the series with Trypanosoma brucei [3] and 0.59 µM in the series on Trypanosoma cruzi [4]. In addition, the selectivity ratio in [10] is greater than 17. Besides, the inhibition was 62% in the series on Trypanosoma brucei [6] and 60% in the series with Trypanosoma brucei [8].
As to `NC(=S)N/N=C/c1cn(-c2ccc(Cl)cc2)nn1`, the inhibition in [1] was found to be 52%; in series [2], 72%; in the series with Trypanosoma brucei [6], 73%; with Trypanosoma brucei [8], 91%. In addition, the concentration giving a half-maximal response (EC50) in the series on Trypanosoma brucei [3] was greater than 50 µM; with Trypanosoma cruzi [4], greater than 10 µM. Also, the IC50 came out at 16.5 µM in [5], 1 µM in series [7] and 16 µM in [9].
`CN(C)CCCNCc1ccc(-c2ccc(Br)cc2)o1`: the inhibition worked out at 79% in [1] and 59% with Trypanosoma brucei [6].
Take `Clc1ccc(-n2cc(CNCC3CCNCC3)nn2)cc1`: the EC50 in the series on Trypanosoma brucei [3] was 49.7 µM; with Trypanosoma cruzi [4], greater than 10 µM. Further, the IC50 in [5] was 168 µM.
Consider `O=C(NCCO)c1cn(-c2ccc(Br)cc2Cl)nn1`, for which the concentration for a half-maximal effect (EC50) was greater than 50 µM with Trypanosoma brucei [3] and greater than 10 µM with Trypanosoma cruzi [4].
